From the supplement of paper PMC10307832

Assays:
Experiment in all cases: relative viability (nuclei count vs DMSO), 5 days (fraction); higher = more cells survive
[1] = compound: C1=CC=C(C(=C1)C2=CC=C(C=C2)C3=CSC4=C3C(=C(C(=O)N4)C#N)O)O + COc1cc2c(Oc3ccc(NC(=O)C4(C(=O)Nc5ccc(F)cc5)CC4)cc3F)ccnc2cc1OCCCN1CCOCC1 [Foretinib] (partner 0.25 µM)
Summary of the method: (§1)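 Medians of duplicate plates are given as relative viability. That measure is the nuclei count in treated wells divided by the count in vehicle wells. Counts were taken on 4× images of lung cancer cell lines in 1536-well plates, 5 days after pin-tool dosing the day after seeding with one drug alone or a fixed anchor-drug dose plus five library-drug doses (not always all listed) in √10 steps.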

Ricolinostat + AZD7762 = compound: O=C(CCCCCCNC(=O)c1cnc(N(c2ccccc2)c2ccccc2)nc1)NO [Ricolinostat] + NC(=O)Nc1cc(-c2cccc(F)c2)sc1C(=O)N[C@H]1CCCNC1 [AZD7762] (partner 0.2 µM)
Summary of the method: as §1

TGX 221 + Foretinib = compound: CC1=CN2C(=O)C=C(N=C2C(=C1)C(C)NC3=CC=CC=C3)N4CCOCC4 [TGX 221] + COc1cc2c(Oc3ccc(NC(=O)C4(C(=O)Nc5ccc(F)cc5)CC4)cc3F)ccnc2cc1OCCCN1CCOCC1 [Foretinib] (partner 0.25 µM)
Summary of the method: as §1

TGX 221 + Luminespib = compound: CC1=CN2C(=O)C=C(N=C2C(=C1)C(C)NC3=CC=CC=C3)N4CCOCC4 [TGX 221] + CCNC(=O)c1noc(-c2cc(C(C)C)c(O)cc2O)c1-c1ccc(CN2CCOCC2)cc1 [Luminespib] (partner 0.01 µM)
Summary of the method: as §1

| Cell Line | relative viability ([1]; first compound 0.253 µM) | relative viability ([1]; first compound 0.8 µM) | relative viability ([1]; first compound 2.53 µM) | relative viability ([1]; first compound 8 µM) | relative viability (Ricolinostat + AZD7762; first compound 0.08 µM) | relative viability (Ricolinostat + AZD7762; first compound 0.253 µM) | relative viability (Ricolinostat + AZD7762; first compound 0.8 µM) | relative viability (Ricolinostat + AZD7762; first compound 2.53 µM) | relative viability (TGX 221 + Foretinib; first compound 0.08 µM) | relative viability (TGX 221 + Foretinib; first compound 0.253 µM) | relative viability (TGX 221 + Foretinib; first compound 0.8 µM) | relative viability (TGX 221 + Foretinib; first compound 2.53 µM) | relative viability (TGX 221 + Foretinib; first compound 8 µM) | relative viability (TGX 221 + Luminespib; first compound 0.08 µM) | relative viability (TGX 221 + Luminespib; first compound 0.253 µM) | relative viability (TGX 221 + Luminespib; first compound 0.8 µM) | relative viability (TGX 221 + Luminespib; first compound 2.53 µM) | relative viability (TGX 221 + Luminespib; first compound 8 µM) | relative viability ([1]; first compound 0.08 µM) |
| --- | --- | --- | --- | --- | --- | --- | --- | --- | --- | --- | --- | --- | --- | --- | --- | --- | --- | --- | --- |
| 201T | 1.12 | 1.23 | 0.988 | 0.954 | 0.607 | 0.657 | 0.645 | 0.541 | 1.22 | 1.09 | 1.13 | 0.931 | 0.817 | 1.09 | 1.04 | 1.13 | 0.979 | 0.871 | – |
| A549 | 1.07 | 0.971 | 0.756 | 0.649 | – | – | – | – | 1.05 | 0.917 | 0.997 | 1.06 | 0.801 | – | – | – | – | – | 0.688 |
| A-427 | 1.18 | 1.19 | 1.1 | 1.18 | 0.606 | 0.708 | 0.518 | 0.507 | 1.15 | 0.987 | 1.12 | 1.05 | 1.06 | 0.892 | 0.82 | 0.863 | 0.843 | 0.861 | 1.16 |
| ABC-1 | 1.13 | 1.05 | 0.951 | 1.09 | 0.945 | 0.788 | 0.748 | 0.617 | 1.1 | 0.806 | 0.817 | 1.1 | 0.835 | 0.477 | – | 0.622 | 0.767 | 0.484 | 1 |
| BEN | 0.611 | 0.668 | 0.646 | 0.634 | 0.534 | 0.754 | 0.559 | 0.576 | 0.667 | 0.58 | 0.748 | 0.624 | 0.606 | 0.26 | 0.234 | 0.4 | 0.378 | 0.332 | 0.503 |
| CAL-12T | 1.13 | 1.2 | 1.19 | 1.01 | 0.496 | 0.602 | 0.56 | 0.489 | 0.994 | 1.12 | 1.27 | 1.15 | 1.09 | 0.644 | 0.206 | 0.244 | 0.295 | 0.257 | 0.951 |
| COR-L23 | 1.08 | 1.13 | 1.07 | 0.909 | – | – | – | – | 0.889 | 0.912 | 1.04 | 0.964 | 0.938 | 0.666 | 0.684 | 0.638 | 0.797 | 0.683 | 0.966 |
| COR-L 105 | 1.33 | 0.997 | 0.943 | 0.994 | – | – | – | – | 0.993 | 0.976 | 0.99 | 0.825 | 0.781 | 0.952 | 0.792 | 0.663 | 0.654 | 0.579 | 1.24 |
| Calu-6 | 0.967 | 0.909 | 0.94 | 0.773 | – | – | – | – | 0.888 | 0.8 | 0.88 | 0.923 | 0.815 | – | – | – | – | – | 0.985 |
| ChaGo-K-1 | 0.9 | 1.08 | 1.02 | 0.723 | 0.842 | 0.901 | 0.862 | 0.798 | 0.989 | 0.871 | 0.926 | 0.827 | 0.876 | 0.584 | 0.617 | 0.574 | 0.559 | 0.505 | 0.882 |
| EBC-1 | 0.101 | 0.123 | 0.0897 | 0.115 | – | – | – | – | 0.0971 | 0.106 | 0.102 | 0.1 | 0.11 | – | – | – | – | – | 0.103 |
| EKVX | 0.828 | 0.799 | 0.831 | 0.743 | 0.673 | 0.732 | 0.654 | 0.487 | 0.691 | 0.914 | 0.763 | 0.691 | 0.925 | 0.832 | 0.724 | 0.791 | 0.715 | 0.738 | 0.882 |
| EMC-BAC-2 | 1.1 | 0.989 | 0.963 | 0.896 | 1.01 | 1.03 | 0.968 | 0.557 | 1.03 | 0.882 | 0.882 | 0.903 | 0.773 | 1.12 | 1.08 | 1.16 | 1.11 | 1.08 | 1.07 |
| EPLC-272H | 0.813 | 0.772 | 0.708 | 0.524 | – | 0.194 | 0.178 | 0.141 | 0.628 | 0.538 | 0.515 | 0.764 | 0.479 | 0.346 | 0.419 | 0.388 | 0.28 | 0.177 | 0.613 |
| H3255 | 0.803 | 0.738 | 0.844 | 1.07 | 0.717 | 0.759 | 0.75 | 0.849 | 0.88 | 0.762 | 0.844 | 0.852 | 0.868 | 0.784 | 0.937 | 0.918 | 0.981 | 0.887 | 0.715 |
| HARA | 1.08 | 0.938 | 0.882 | 0.706 | 0.35 | 0.256 | 0.184 | 0.236 | 0.703 | 0.71 | 0.904 | 0.849 | 0.667 | 0.827 | 0.863 | 0.812 | 0.702 | 0.668 | 0.721 |
| HCC-15 | 1.1 | 1.13 | 1.12 | 0.898 | 1.09 | 1.11 | 1.37 | 1.29 | 0.993 | 0.964 | 1 | 0.973 | 1 | 0.294 | 0.335 | 0.373 | 0.204 | 0.362 | 0.996 |
| HCC-44 | – | – | – | – | 1.05 | 0.972 | 0.993 | 1.05 | – | – | – | – | – | – | 1.09 | 1.03 | 1.04 | 0.734 | – |
| HCC-78 | 0.629 | 0.579 | 0.498 | 0.52 | – | 0.718 | 0.453 | 0.2 | 0.581 | 0.551 | 0.586 | 0.478 | 0.502 | – | – | – | – | – | 0.649 |
| HCC-366 | 0.974 | 0.949 | 0.992 | 0.959 | 0.266 | 0.27 | 0.264 | 0.172 | 0.844 | 0.892 | 0.96 | 0.902 | 0.813 | – | – | – | – | – | 1.03 |
